From US20240270698A2, “NOVEL PYRIMIDINE DERIVATIVE AND USE THEREOF” (KOREA RESEARCH INSTITUTE OF CHEMICAL TECHNOLOGY, priority 2019, published 2024)

Experiments:
[1] = target: T1, human recombinant MLK3 protein (Homo sapiens, UniProt Q16584); experiment: MLK3 kinase activity assay (Eurofins, gamma-33P-ATP, filtermat scintillation counting); type: biochemical; settings: human recombinant MLK3, 120 minutes at room temperature
T1 construct: purchased Eurofins
Method: (§1) Compounds 1 to 119 synthesized in Example 1 according to the present disclosure were assayed for inhibitory activity against MLK3/LRRK2 enzymes and anticancer activity against HepG2/HS746T cancer cells, and the results are summarized in Table 1, below.
(§2) Inhibitory activity against MLK3 and LRRK2 enzymes was evaluated in Eurofins. In brief, human recombinant MLK3 protein was mixed with the compounds in a reaction buffer (8 mM MOPS (pH 7.0), 0.2 mM EDTA, 0.33 mg/mL myelin basic protein, 5 mM DTT) to which a mixture of 10 mM magnesium acetate and gamma-33P-ATP was then added before incubation at room temperature for 120 minutes. Afterward, the reaction was terminated with 0.5% phosphoric acid. Ten μL of the total mixture was spotted onto a P30 filtermat which was then washed four times for 4 minutes with 0.425% phosphoric acid and once in methanol prior to scintillation counting. Values for the activity of MLK3 were expressed as % of the control. For the activity of LRRK2, human recombinant LRRK2 protein was mixed with the compounds in a reaction buffer (50 mM HEPES (pH 8.0), 0.2 mM EDTA, 0.01% Brij-35, 1% (w/v) BSA, 5 mM DTT, 250 uM substrate peptide RLGRDKYKTLRQIRQ) and then reacted with a mixture of 10 mM magnesium acetate and gamma-33P-ATP at room temperature for 40 minutes. Afterward, the reaction was terminated with 0.5% phosphoric acid. Ten μL of the total mixture was spotted onto a P30 filtermat which was then washed four times for 4 minutes with 0.425% phosphoric acid and once in methanol prior to scintillation counting. Values for the activity of LRRK2 were expressed as % of the control.

[2] = target: T2, human recombinant LRRK2 protein (Homo sapiens, UniProt Q5S007); experiment: LRRK2 kinase activity assay (Eurofins, gamma-33P-ATP, filtermat scintillation counting); type: biochemical; settings: human recombinant LRRK2, 40 minutes at room temperature
T2 construct: purchased Eurofins
Method: as §1, §2

HepG2 cancer cells = experiment: Anticancer activity, cell viability by CCK-8, HepG2; type: cell-based; settings: HepG2, 10 μM, 72 hours
Method: (§3) Compounds 1 to 119 synthesized in Example 1 according to the present disclosure were assayed for inhibitory activity against MLK3/LRRK2 enzymes and anticancer activity against HepG2/H[…] cancer cells, and the results are summarized in Table 1, below. Assay for anticancer activity was conducted as follows. HepG2 and H[…] cancer cells were purchased from the Korean Cell Line Bank and cultured according to the instruction provided thereby. One hundred μL of a culture of the cells were seeded at a density of 4,000 cells/well into 96-well plates. After 24 hours, the cells were treated with the compounds for 72 hours. Then, cell viability was assayed using CCK-8 and expressed as % of the control.

HS746T cancer cells = experiment: Anticancer activity, cell viability by CCK-8, HS746T; type: cell-based; settings: 72 hours
Method: as §3

T2 sequence (Q5S007 whole entry): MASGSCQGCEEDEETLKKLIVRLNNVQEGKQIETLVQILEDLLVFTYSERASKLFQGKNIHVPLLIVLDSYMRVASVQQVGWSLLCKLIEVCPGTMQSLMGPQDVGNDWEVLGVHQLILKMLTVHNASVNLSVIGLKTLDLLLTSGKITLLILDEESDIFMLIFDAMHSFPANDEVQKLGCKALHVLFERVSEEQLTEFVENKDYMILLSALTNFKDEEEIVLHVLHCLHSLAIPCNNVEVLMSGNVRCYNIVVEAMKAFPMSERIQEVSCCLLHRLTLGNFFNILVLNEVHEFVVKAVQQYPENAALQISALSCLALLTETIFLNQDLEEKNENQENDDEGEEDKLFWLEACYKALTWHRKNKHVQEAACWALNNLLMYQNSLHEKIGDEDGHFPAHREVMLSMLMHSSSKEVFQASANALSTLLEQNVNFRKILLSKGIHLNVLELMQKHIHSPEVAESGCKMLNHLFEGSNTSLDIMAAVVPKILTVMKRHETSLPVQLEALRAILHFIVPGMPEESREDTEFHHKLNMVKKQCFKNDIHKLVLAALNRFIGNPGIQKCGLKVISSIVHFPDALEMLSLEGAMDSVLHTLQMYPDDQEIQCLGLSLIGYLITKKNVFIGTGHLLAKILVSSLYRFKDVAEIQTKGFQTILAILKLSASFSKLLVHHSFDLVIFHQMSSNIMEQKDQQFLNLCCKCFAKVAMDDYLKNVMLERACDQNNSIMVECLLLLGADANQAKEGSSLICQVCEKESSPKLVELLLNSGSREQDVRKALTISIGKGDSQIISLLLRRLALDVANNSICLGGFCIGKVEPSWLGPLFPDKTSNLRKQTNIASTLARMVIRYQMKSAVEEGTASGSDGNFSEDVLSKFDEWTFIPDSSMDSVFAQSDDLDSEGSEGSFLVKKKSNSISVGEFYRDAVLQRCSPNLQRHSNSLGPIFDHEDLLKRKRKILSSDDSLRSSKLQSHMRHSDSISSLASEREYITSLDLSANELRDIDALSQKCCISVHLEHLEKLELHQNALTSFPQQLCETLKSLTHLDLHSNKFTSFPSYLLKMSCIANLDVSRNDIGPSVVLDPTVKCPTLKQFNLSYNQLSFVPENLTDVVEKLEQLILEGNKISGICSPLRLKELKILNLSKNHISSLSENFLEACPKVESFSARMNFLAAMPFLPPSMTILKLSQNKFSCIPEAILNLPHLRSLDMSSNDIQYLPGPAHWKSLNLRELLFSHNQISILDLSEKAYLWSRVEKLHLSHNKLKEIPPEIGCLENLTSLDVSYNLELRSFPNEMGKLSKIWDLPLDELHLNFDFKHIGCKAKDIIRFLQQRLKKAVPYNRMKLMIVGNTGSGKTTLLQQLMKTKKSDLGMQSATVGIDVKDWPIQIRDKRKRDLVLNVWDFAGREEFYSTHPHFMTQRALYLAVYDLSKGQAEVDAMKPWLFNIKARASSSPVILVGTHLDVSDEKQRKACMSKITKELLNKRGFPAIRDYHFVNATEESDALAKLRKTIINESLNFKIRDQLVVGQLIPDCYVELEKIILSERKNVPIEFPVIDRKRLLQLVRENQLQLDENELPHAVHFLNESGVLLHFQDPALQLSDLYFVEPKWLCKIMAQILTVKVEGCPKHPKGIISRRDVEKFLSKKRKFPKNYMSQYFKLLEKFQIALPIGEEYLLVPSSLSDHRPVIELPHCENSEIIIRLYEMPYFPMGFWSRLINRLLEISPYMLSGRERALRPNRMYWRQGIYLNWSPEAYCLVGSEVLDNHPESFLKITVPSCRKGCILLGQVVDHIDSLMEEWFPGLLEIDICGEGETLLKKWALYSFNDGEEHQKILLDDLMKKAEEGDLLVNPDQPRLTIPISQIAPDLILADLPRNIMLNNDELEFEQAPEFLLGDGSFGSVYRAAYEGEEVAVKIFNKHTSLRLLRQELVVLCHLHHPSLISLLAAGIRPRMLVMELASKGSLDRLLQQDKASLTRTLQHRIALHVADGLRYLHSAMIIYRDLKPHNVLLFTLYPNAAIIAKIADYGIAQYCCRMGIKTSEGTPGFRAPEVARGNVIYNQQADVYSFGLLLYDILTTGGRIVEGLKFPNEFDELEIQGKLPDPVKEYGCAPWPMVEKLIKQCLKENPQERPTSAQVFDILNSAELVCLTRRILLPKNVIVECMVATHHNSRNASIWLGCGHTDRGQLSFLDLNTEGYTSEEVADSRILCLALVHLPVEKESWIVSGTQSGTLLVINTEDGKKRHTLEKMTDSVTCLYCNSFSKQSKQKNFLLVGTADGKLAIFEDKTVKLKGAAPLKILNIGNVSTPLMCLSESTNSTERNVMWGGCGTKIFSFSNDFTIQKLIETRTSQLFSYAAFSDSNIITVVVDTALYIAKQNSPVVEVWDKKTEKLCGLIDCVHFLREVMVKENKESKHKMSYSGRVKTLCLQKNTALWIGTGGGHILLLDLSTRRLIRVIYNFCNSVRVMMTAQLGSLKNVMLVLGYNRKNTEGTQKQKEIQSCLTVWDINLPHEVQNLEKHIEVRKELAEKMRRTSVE
T1 sequence (Q16584 whole entry): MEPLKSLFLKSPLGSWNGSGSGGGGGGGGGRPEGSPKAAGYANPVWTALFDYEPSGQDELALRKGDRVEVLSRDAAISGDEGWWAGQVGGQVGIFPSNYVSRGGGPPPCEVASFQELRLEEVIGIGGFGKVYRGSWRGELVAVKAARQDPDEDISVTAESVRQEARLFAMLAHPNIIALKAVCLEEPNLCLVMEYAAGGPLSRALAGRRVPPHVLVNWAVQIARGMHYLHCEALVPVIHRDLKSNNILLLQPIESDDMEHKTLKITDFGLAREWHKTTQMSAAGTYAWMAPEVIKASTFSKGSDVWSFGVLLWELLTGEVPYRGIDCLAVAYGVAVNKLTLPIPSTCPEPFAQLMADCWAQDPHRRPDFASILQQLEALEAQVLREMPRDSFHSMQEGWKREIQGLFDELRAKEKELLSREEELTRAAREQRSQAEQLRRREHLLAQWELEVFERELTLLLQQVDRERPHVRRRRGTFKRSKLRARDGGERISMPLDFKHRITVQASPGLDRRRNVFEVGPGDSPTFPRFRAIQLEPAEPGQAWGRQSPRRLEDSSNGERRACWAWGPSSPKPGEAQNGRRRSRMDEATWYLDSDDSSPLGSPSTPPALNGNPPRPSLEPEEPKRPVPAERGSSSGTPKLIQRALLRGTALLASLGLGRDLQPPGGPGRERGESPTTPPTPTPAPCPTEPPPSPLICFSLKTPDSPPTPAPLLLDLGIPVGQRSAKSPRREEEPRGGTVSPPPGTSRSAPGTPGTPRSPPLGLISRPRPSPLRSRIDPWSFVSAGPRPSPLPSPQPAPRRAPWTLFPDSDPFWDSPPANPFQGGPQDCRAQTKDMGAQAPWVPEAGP

Structure (SMILES): CP(C)(=O)c1ccccc1Nc1nc(Nc2ccc3[nH]nc(-c4ccc(C#N)cc4)c3c2)ncc1Cl [compound 105, 4-(5-((5-Chloro-4-((2-(dimethylphosphoryl)phenyl)amino)pyrimidin-2-yl)amino)-1H-indazol-3-yl)benzonitrile]
- IC50 [1]: 1 to 10 nM
- IC50 [2]: 10 to 100 nM
- Cell viability (% of Con. 10 μM) HepG2 (HepG2 cancer cells): 55 % of Con.
- Cell viability (% of Con. 10 μM) HS746T (HS746T cancer cells): 23 % of Con.

Structure (SMILES): CC1(C)CNCc2cc(Nc3ncc(Cl)c(Nc4ccccc4P(C)(C)=O)n3)ccc21 [compound 52, (2-((5-Chloro-2-((4,4-dimethyl-1,2,3,4-tetrahydroisoquinolin-7-yl)amino)pyrimidin-4-yl)amino)phenyl)dimethylphosphine oxide]
- IC50 [1]: 1 to 10 nM
- IC50 [2]: 1 to 10 nM
- Cell viability (% of Con. 10 μM) HepG2 (HepG2 cancer cells): 21 % of Con.
- Cell viability (% of Con. 10 μM) HS746T (HS746T cancer cells): 1 % of Con.

Structure (SMILES): CC(C)S(=O)(=O)c1ccccc1Nc1nc(Nc2cc(C(F)(F)F)cc(C(F)(F)F)c2)ncc1Cl [compound 5, N^2-(3,5-bis(trifluoromethyl)phenyl)-5-chloro-N^4-(2-(isopropylsulfonyl)phenyl)pyrimidine-2,4-diamine]
- IC50 [1]: 10 to 100 nM
- IC50 [2]: 100 to 1000 nM

Structure (SMILES): CP(C)(=O)c1ccccc1Nc1nc(Nc2ccc3cn[nH]c3c2)ncc1Cl [compound 64, (2-((2-((1H-Indazol-6-yl)amino)-5-chloropyrimidin-4-yl)amino)phenyl)dimethylphosphine oxide]
- IC50 [1]: 1 to 10 nM
- IC50 [2]: 1 to 10 nM
- Cell viability (% of Con. 10 μM) HepG2 (HepG2 cancer cells): 23 % of Con.
- Cell viability (% of Con. 10 μM) HS746T (HS746T cancer cells): 29 % of Con.

Structure (SMILES): CP(C)(=O)c1ccccc1Nc1nc(Nc2ccc3[nH]nc(-c4ccc(O)cc4)c3c2)ncc1Cl [compound 108, (2-((5-chloro-2-((3-(4-hydroxyphenyl)-1H-indazol-5-yl)amino)pyrimidin-4-yl)amino)phenyl)dimethylphosphine oxide]
- IC50 [1]: 1 to 10 nM
- IC50 [2]: 10 to 100 nM
- Cell viability (% of Con. 10 μM) HepG2 (HepG2 cancer cells): 67 % of Con.
- Cell viability (% of Con. 10 μM) HS746T (HS746T cancer cells): 8 % of Con.

Structure (SMILES): CP(C)(=O)c1ccccc1Nc1nc(Nc2ccc3[nH]nc(-c4ccccc4)c3c2)ncc1Cl [compound 96, (2-((5-chloro-2-((3-phenyl-1H-indazol-5-yl)amino)pyrimidin-4-yl)amino)phenyl)dimethylphosphine oxide]
- IC50 [1]: 1 to 10 nM
- IC50 [2]: 1 to 10 nM
- Cell viability (% of Con. 10 μM) HepG2 (HepG2 cancer cells): 15 % of Con.
- Cell viability (% of Con. 10 μM) HS746T (HS746T cancer cells): 10 % of Con.

Structure (SMILES): CP(C)(=O)c1ccccc1Nc1nc(Nc2ccc3[nH]nc(-c4ccc(C=O)o4)c3c2)ncc1Cl [compound 92, 5-(5-((5-Chloro-4-((2-(dimethylphosphoryl)phenyl)amino)pyrimidin-2-yl)amino)-1H-indazol-3-yl)furan-2-carbaldehyde]
- IC50 [1]: 1 to 10 nM
- IC50 [2]: 1 to 10 nM
- Cell viability (% of Con. 10 μM) HS746T (HS746T cancer cells): 14.1 % of Con.

Structure (SMILES): CP(C)(=O)c1ccccc1Nc1nc(Nc2ccc3c(c2)CN(C(=O)C(F)(F)F)C3)ncc1Cl [compound 72, 1-(5-((5-Chloro-4-((2-(dimethylphosphoryl)phenyl)amino)pyrimidin-2-yl)amino)isoindolin-2-yl)-2,2,2-trifluoroethan-1-one]
- IC50 [1]: 10 to 100 nM
- IC50 [2]: 1 to 10 nM
- Cell viability (% of Con. 10 μM) HepG2 (HepG2 cancer cells): 35 % of Con.
- Cell viability (% of Con. 10 μM) HS746T (HS746T cancer cells): 9 % of Con.

Structure (SMILES): CC(C)C1c2cc(Nc3ncc(Cl)c(Nc4ccccc4P(C)(C)=O)n3)ccc2CCN1C(=O)C(F)(F)F (stereo not shown) [compound 53, 1-(7-((5-Chloro-4-((2-(dimethylphosphoryl)phenyl)amino)pyrimidin-2-yl)amino)-1-isopropyl-3,4-dihydroisoquinolin-2(1H)-yl)-2,2,2-trifluoroethan-1-one]
- IC50 [1]: 1 to 10 nM
- IC50 [2]: 1 to 10 nM
- Cell viability (% of Con. 10 μM) HepG2 (HepG2 cancer cells): 23 % of Con.
- Cell viability (% of Con. 10 μM) HS746T (HS746T cancer cells): 14 % of Con.

Structure (SMILES): CP(C)(=O)c1ccccc1Nc1nc(Nc2ccc3[nH]nc(-c4cccc(O)c4)c3c2)ncc1Cl [compound 118, (2-((5-chloro-2-((3-(3-hydroxyphenyl)-1H-indazol-5-yl)amino)pyrimidin-4-yl)amino)phenyl)dimethylphosphine oxide]
- IC50 [1]: 1 to 10 nM
- IC50 [2]: 10 to 100 nM
- Cell viability (% of Con. 10 μM) HepG2 (HepG2 cancer cells): 43 % of Con.
- Cell viability (% of Con. 10 μM) HS746T (HS746T cancer cells): 5 % of Con.

Structure (SMILES): CC(C)(C)OC(=O)N1CC=C(c2n[nH]c3ccc(Nc4ncc(Cl)c(Nc5ccccc5P(C)(C)=O)n4)cc23)CC1 [compound 85, Tert-butyl 4-(5-((5-chloro-4-((2-(dimethylphosphoryl)phenyl)amino)pyrimidin-2-yl)amino)-1H-indazol-3-yl)-3,6-dihydropyridine-1(2H)-carboxylate]
- IC50 [1]: 1 to 10 nM
- IC50 [2]: 1 to 10 nM
- Cell viability (% of Con. 10 μM) HS746T (HS746T cancer cells): 6 % of Con.

Structure (SMILES): CC1(C)NCCc2ccc(Nc3ncc(Cl)c(Nc4ccccc4P(C)(C)=O)n3)cc21 [compound 44, (2-((5-Chloro-2-((1,1-dimethyl-1,2,3,4-tetrahydroisoquinolin-7-yl)amino)pyrimidin-4-yl)amino)phenyl)dimethylphosphine oxide]
- IC50 [1]: 1 to 10 nM
- IC50 [2]: 1 to 10 nM
- Cell viability (% of Con. 10 μM) HepG2 (HepG2 cancer cells): 53 % of Con.
- Cell viability (% of Con. 10 μM) HS746T (HS746T cancer cells): 17 % of Con.

Structure (SMILES): Cc1cc(C)cc(Nc2ncc(Cl)c(Nc3ccccc3S(=O)(=O)C(C)C)n2)c1 [compound 3, 5-Chloro-N^2-(3,5-dimethylphenyl)-N^4-(2-(isopropylsulfonyl)phenyl) pyrimidine-2,4-diamine]
- IC50 [1]: 100 to 1000 nM
- IC50 [2]: 100 to 1000 nM

Structure (SMILES): CP(C)(=O)c1ccccc1Nc1nc(Nc2ccc3[nH]nc(-c4cn[nH]c4)c3c2)ncc1Cl [compound 84, (2-((2-((3-(1H-Pyrazol-4-yl)-1H-indazol-5-yl)amino)-5-chloropyrimidin-4-yl)amino)phenyl)dimethylphosphine oxide]
- IC50 [1]: 1 to 10 nM
- IC50 [2]: 1 to 10 nM
- Cell viability (% of Con. 10 μM) HS746T (HS746T cancer cells): 11 % of Con.

Structure (SMILES): CP(C)(=O)c1ccccc1Nc1nc(Nc2cnc3[nH]ccc3c2)ncc1Cl [compound 79, (2-((2-((1H-Pyrrolo[2,3-b]pyridin-5-yl)amino)-5-chloropyrimidin-4-yl)amino)phenyl)dimethylphosphine oxide]
- IC50 [1]: 10 to 100 nM
- IC50 [2]: 1 to 10 nM
- Cell viability (% of Con. 10 μM) HS746T (HS746T cancer cells): 19 % of Con.

Structure (SMILES): CP(C)(=O)c1ccccc1Nc1nc(Nc2cnc3[nH]ncc3c2)ncc1Cl [compound 82, (2-((2-((1H-Pyrazolo[3,4-b]pyridin-5-yl)amino)-5-chloropyrimidin-4-yl)amino)phenyl)dimethylphosphine oxide]
- IC50 [1]: 10 to 100 nM
- IC50 [2]: 10 to 100 nM
- Cell viability (% of Con. 10 μM) HS746T (HS746T cancer cells): 18 % of Con.

Structure (SMILES): CC(C)S(=O)(=O)c1ccccc1Nc1nc(Nc2cc(F)cc(F)c2)ncc1Cl [compound 6, 5-Chloro-N^2-(3,5-difluorophenyl)-N^4-(2-(isopropylsulfonyl)phenyl) pyrimidine-2,4-diamine]
- IC50 [1]: 100 to 1000 nM
- IC50 [2]: 100 to 1000 nM

Structure (SMILES): CP(C)(=O)c1ccccc1Nc1nc(Nc2ccc3[nH]nc(-c4cccnc4F)c3c2)ncc1Cl [compound 83, (2-((5-Chloro-2-((3-(2-fluoropyridin-3-yl)-1H-indazol-5-yl)amino)pyrimidin-4-yl)amino)phenyl)dimethylphosphine oxide]
- IC50 [1]: 1 to 10 nM
- IC50 [2]: 1 to 10 nM
- Cell viability (% of Con. 10 μM) HS746T (HS746T cancer cells): 11 % of Con.

Structure (SMILES): CC(C)S(=O)(=O)c1ccccc1Nc1nc(Nc2cc(F)c(Br)c(F)c2)ncc1Cl [compound 4, N^2-(4-Bromo-3,5-difluorophenyl)-5-chloro-N^4-(2-(isopropylsulfonyl)phenyl)pyrimidine-2,4-diamine]
- IC50 [1]: 100 to 1000 nM
- IC50 [2]: 10 to 100 nM

Structure (SMILES): CC(C)S(=O)(=O)c1ccccc1Nc1nc(Nc2cc(Cl)cc(Cl)c2)ncc1Cl [compound 2, 5-Chloro-N^2-(3,5-dichlorophenyl)-N^4-(2-(isopropylsulfonyl)phenyl) pyrimidine-2,4-diamine]
- IC50 [1]: 100 to 1000 nM
- IC50 [2]: 100 to 1000 nM

Structure (SMILES): CP(C)(=O)c1ccccc1Nc1nc(Nc2ccc3[nH]nc(C4=CCNCC4)c3c2)ncc1Cl [compound 91]
- IC50 [1]: 1 to 10 nM
- IC50 [2]: 1 to 10 nM
- Cell viability (% of Con. 10 μM) HS746T (HS746T cancer cells): 5.8 % of Con.

Structure (SMILES): Cn1ncc2cc(Nc3ncc(Cl)c(Nc4ccccc4P(C)(C)=O)n3)cnc21 [compound 78]
- IC50 [1]: 10 to 100 nM
- IC50 [2]: 1 to 10 nM
- Cell viability (% of Con. 10 μM) HS746T (HS746T cancer cells): 17 % of Con.
